Legend:
Assay in all cases: normalised viability (% of control), CellTiter-Blue; higher = more viable cells (about 100 = DMSO control)
DU-4475 [1] = settings: incubation time: 72 h
How it was run: (§1)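 Breast cancer cell lines in 20 µl suspension were seeded onto 384-well plates pre-loaded with compound dissolved in 5 µl medium, then incubated 72 h. CellTiter-Blue reagent (2.5 µl) was added for 2 h at 37 °C and fluorescence read at 560/590 nm. Each plate was normalised to vehicle (100) and a positive kill control (0), with Z'-factor quality control. The value is normalised viability at one listed concentration of the series.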

BT-474 [2] = settings: incubation time: 72 h
How it was run: as §1

MFM-223 [3] = settings: incubation time: 72 h
How it was run: as §1

CAL-51 [4] = settings: incubation time: 72 h
How it was run: as §1

HDQ-P1 [5] = settings: incubation time: 72 h
How it was run: as §1

HCC1937 [6] = settings: incubation time: 72 h
How it was run: as §1

MDA-MB-453 [7] = settings: incubation time: 72 h
How it was run: as §1

MDA-MB-468 [8] = settings: incubation time: 72 h
How it was run: as §1

Hs578T [9] = settings: incubation time: 72 h
How it was run: as §1

SK-BR-3 [10] = settings: incubation time: 72 h
How it was run: as §1

CAL-120 [11] = settings: incubation time: 72 h
How it was run: as §1

CAL-148 [12] = settings: incubation time: 72 h
How it was run: as §1

DU-4475 [13] = settings: 10 nM; incubation time: 72 h
Description: (§2)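 DSRT, CellTiter-Blue viability, 72 h incubation. Signal is normalised to DMSO and benzethonium chloride controls. Value is the normalised response at dose 3.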

HCC1143 = settings: 100 nM; incubation time: 72 h
Description: as §2

BT-474 [14] = settings: 100 nM; incubation time: 72 h
Description: as §2

BT-549 = settings: 100 nM; incubation time: 72 h
Description: as §2

MDA-MB-231 = settings: 100 nM; incubation time: 72 h
Description: as §2

HCC1599 = settings: 100 nM; incubation time: 72 h
Description: as §2

MFM-223 [15] = settings: 100 nM; incubation time: 72 h
Description: as §2

CAL-51 [16] = settings: 10 nM; incubation time: 72 h
Description: as §2

MDA-MB-436 = settings: 100 nM; incubation time: 72 h
Description: as §2

HDQ-P1 [17] = settings: 10 nM; incubation time: 72 h
Description: as §2

HCC1937 [18] = settings: 100 nM; incubation time: 72 h
Description: as §2

MDA-MB-453 [19] = settings: 10 nM; incubation time: 72 h
Description: as §2

MDA-MB-468 [20] = settings: 100 nM; incubation time: 72 h
Description: as §2

Hs578T [21] = settings: 100 nM; incubation time: 72 h
Description: as §2

SK-BR-3 [22] = settings: 100 nM; incubation time: 72 h
Description: as §2

CAL-85-1 = settings: 10 nM; incubation time: 72 h
Description: as §2

CAL-120 [23] = settings: 100 nM; incubation time: 72 h
Description: as §2

CAL-148 [24] = settings: 10 nM; incubation time: 72 h
Description: as §2

O=P1(NCCCl)OCCCN1CCCl (stereo not drawn) [Ifosfamide]
normalised viability [%]
Settings | 3 nM | 10 nM | 30 nM | 100 nM | 1000 nM | 10000 nM
BT-474 [2] | – | 114 | – | – | 112 | 120
CAL-51 [4] | 114 | – | 110 | 107 | – | –
CAL-120 [11] | – | 88.7 | – | – | 99.3 | 85.2
CAL-148 [12] | 89.8 | – | 92 | 93 | – | –
DU-4475 [1] | 88.5 | – | 101 | 81.9 | – | –
HCC1937 [6] | – | 84 | – | – | 74.6 | 97.6
HDQ-P1 [5] | 94 | – | 93.9 | 103 | – | –
Hs578T [9] | – | 102 | – | – | 102 | 115
MDA-MB-453 [7] | 132 | – | 87.3 | 106 | – | –
MDA-MB-468 [8] | – | 110 | – | – | 120 | 103
MFM-223 [3] | – | 87.1 | – | – | 91.6 | 97.3
SK-BR-3 [10] | – | 109 | – | – | 117 | 97.8

Settings | normalised viability [%]
BT-474 [14] | 120
BT-549 | 115
CAL-51 [16] | 107
CAL-85-1 | 95.5
CAL-120 [23] | 91.2
CAL-148 [24] | 92.2
DU-4475 [13] | 110
HCC1143 | 83.4
HCC1599 | 108
HCC1937 [18] | 107
HDQ-P1 [17] | 125
Hs578T [21] | 94.9
MDA-MB-231 | 108
MDA-MB-436 | 95.3
MDA-MB-453 [19] | 99.8
MDA-MB-468 [20] | 98.7
MFM-223 [15] | 81.2
SK-BR-3 [22] | 70.5

Clc1ccc(Nc2nnc(Cc3ccncc3)c3ccccc23)cc1 [Vatalanib]
normalised viability [%]
Settings | 3 nM | 10 nM | 30 nM | 100 nM | 1000 nM | 10000 nM
BT-474 [2] | – | 95.8 | – | – | 96 | 73.1
CAL-51 [4] | 104 | – | 98.7 | 104 | – | –
CAL-120 [11] | – | 82.2 | – | – | 89.7 | 82.6
CAL-148 [12] | 76.1 | – | 83.6 | 82.2 | – | –
DU-4475 [1] | 98.2 | – | 100 | 99 | – | –
HCC1937 [6] | – | 75 | – | – | 95.7 | 91.9
HDQ-P1 [5] | 105 | – | 102 | 108 | – | –
Hs578T [9] | – | 115 | – | – | 104 | 84.7
MDA-MB-453 [7] | 107 | – | 112 | 112 | – | –
MDA-MB-468 [8] | – | 98.6 | – | – | 112 | 78.2
MFM-223 [3] | – | 99.5 | – | – | 99.8 | 111
SK-BR-3 [10] | – | 95.2 | – | – | 101 | 86.9

Settings | normalised viability [%]
BT-474 [14] | 100
BT-549 | 81.4
CAL-51 [16] | 101
CAL-85-1 | 97.3
CAL-120 [23] | 79.7
CAL-148 [24] | 84.4
DU-4475 [13] | 97.9
HCC1143 | 78.9
HCC1599 | 109
HCC1937 [18] | 112
HDQ-P1 [17] | 105
Hs578T [21] | 100
MDA-MB-231 | 89.1
MDA-MB-436 | 119
MDA-MB-453 [19] | 111
MDA-MB-468 [20] | 100
MFM-223 [15] | 97.7
SK-BR-3 [22] | 66.5
